What was measured:
ΔF508-CFTR [1] = target: T1, ΔF508-CFTR (Homo sapiens, UniProt P13569, DEL508-508); assay: CFTR cell surface levels using HRP-tagged ΔF508-CFTR expressing CFBE cells, in the presence of a co-corrector; assay type: cell-based
T1 construct: host or cells: CFBE41o-, doxycycline-inducible
Summary of the method: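 Cells were seeded with 0.5 μg/mL doxycycline and held 68 h at 37 °C. Test compounds plus 3 μM co-corrector (final 0.1% DMSO) were then added for 20 h at 33 °C. Washed cells received HRP substrate, and luminescence was normalized between DMSO and 3 μM co-corrector controls.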

ΔF508-CFTR [2] = target: T1, ΔF508-CFTR; assay: CFTR cell surface levels using HRP-tagged ΔF508-CFTR expressing CFBE cells, intrinsic corrector capacity; assay type: cell-based
Summary of the method: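 Here the cells express ΔF508-CFTR with horseradish peroxidase inserted in extracellular loop 4, so only rescued channel at the surface gives luminescent signal. Compounds act on their own, 20 h at the reduced temperature of 33 °C; values are percent activity relative to DMSO and a 3 μM corrector.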

[3] = HRP-tagged ΔF508-CFTR expressing CFBE cells, in the presence of 3 μM co-corrector
[4] = HRP-tagged ΔF508-CFTR expressing CFBE cells, in the presence of 3 μM co-corrector, read-out: EC50
[5] = HRP-tagged ΔF508-CFTR expressing CFBE cells, intrinsic corrector capacity (no co-corrector), 33° C., 20 hours
[6] = HRP-tagged ΔF508-CFTR expressing CFBE cells, intrinsic corrector capacity (no co-corrector), 33° C., 20 hours, read-out: EC50
[7] = HRP-tagged ΔF508-CFTR CFBE cells, compound alone (intrinsic corrector capacity), 20 hours at 33° C.
[8] = HRP-tagged ΔF508-CFTR CFBE cells, compound alone (intrinsic corrector capacity), 20 hours at 33° C., read-out: EC50
[9] = HRP-tagged ΔF508-CFTR CFBE41o- cells, compounds alone (intrinsic corrector capacity), 20 hours at 33° C., positive control 3 μM corrector
[10] = HRP-tagged ΔF508-CFTR CFBE41o- cells, compounds alone (intrinsic corrector capacity), 20 hours at 33° C., read-out: EC50

T1 sequence (P13569 with tags, fused parts or gaps DEL508-508): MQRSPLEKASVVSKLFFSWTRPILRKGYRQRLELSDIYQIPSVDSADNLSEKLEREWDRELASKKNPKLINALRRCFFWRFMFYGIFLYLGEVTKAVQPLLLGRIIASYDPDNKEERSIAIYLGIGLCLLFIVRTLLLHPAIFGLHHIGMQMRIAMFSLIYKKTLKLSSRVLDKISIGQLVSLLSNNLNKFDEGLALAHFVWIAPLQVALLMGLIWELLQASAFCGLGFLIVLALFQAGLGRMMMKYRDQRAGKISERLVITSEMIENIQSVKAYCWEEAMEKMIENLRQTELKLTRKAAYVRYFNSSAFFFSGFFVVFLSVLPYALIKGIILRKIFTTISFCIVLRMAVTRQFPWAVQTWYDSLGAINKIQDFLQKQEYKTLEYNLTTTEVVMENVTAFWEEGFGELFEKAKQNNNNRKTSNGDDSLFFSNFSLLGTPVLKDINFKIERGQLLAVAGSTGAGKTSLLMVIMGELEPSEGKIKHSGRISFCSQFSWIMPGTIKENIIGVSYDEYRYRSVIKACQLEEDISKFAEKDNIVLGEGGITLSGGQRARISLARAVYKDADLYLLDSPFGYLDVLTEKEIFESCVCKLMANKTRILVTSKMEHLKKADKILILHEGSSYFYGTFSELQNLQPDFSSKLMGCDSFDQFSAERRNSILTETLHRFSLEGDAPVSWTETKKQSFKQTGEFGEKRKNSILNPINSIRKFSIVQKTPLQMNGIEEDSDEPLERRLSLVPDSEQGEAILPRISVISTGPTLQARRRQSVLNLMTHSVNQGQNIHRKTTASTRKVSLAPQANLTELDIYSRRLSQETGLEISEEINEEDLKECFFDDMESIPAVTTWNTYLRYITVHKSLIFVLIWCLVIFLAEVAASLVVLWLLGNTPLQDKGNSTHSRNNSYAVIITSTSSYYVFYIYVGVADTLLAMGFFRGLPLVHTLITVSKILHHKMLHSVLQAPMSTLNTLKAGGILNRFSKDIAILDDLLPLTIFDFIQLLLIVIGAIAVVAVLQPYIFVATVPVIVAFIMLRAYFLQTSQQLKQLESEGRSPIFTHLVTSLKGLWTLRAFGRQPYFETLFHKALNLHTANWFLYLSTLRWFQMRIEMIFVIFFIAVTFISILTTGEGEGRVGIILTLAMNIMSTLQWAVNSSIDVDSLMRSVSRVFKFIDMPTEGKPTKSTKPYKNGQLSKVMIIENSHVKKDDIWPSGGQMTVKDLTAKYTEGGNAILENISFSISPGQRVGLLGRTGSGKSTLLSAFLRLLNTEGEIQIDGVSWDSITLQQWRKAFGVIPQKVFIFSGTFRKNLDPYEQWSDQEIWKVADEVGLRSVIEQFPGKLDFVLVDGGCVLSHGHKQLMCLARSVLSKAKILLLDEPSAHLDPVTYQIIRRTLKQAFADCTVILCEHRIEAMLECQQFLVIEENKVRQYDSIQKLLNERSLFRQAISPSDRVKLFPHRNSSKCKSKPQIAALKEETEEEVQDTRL

Row | Structure (SMILES) | % Activation (ΔF508-CFTR [1]; [3]) [%] | EC50 (ΔF508-CFTR [1]; [4]) [nM] | % Activation (ΔF508-CFTR [2]; [5]) [%] | EC50 (ΔF508-CFTR [2]; [6]) [nM] | EC50 (ΔF508-CFTR [1]) [nM] | EC50 (ΔF508-CFTR [2]) [nM] | % Activation (ΔF508-CFTR [2]; [7]) [%] | EC50 (ΔF508-CFTR [2]; [8]) [nM] | % Activation (ΔF508-CFTR [2]; [9]) [%] | EC50 (ΔF508-CFTR [2]; [10]) [nM]
1 | O=C(O)c1cc(N2CCC3(CC2)CCN(C2CC2)CC3)c2c(C3CCC3)nn(-c3ccc(F)cc3)c2n1 [compound 887, 3-cyclobutyl-4-(9-cyclopropyl-3,9-diazaspiro[5.5]undecan-3-yl)-1-(4-fluorophenyl)-1H-pyrazolo[3,4-b]pyridine-6-carboxylic acid] | 375.13 | 204 | 191.35 | 361 | – | – | – | – | – | –
2 | O=C(O)c1cc(N2CCC(N3CCCCC3)CC2)c2c(C3CCC3)nn(-c3ccccc3)c2n1 [compound 576, 4-([1,4′-bipiperidin]-1′-yl)-3-cyclobutyl-1-phenyl-1H-pyrazolo[3,4-b]pyridine-6-carboxylic acid] | 390.78 | – | 175.2 | – | 396 | 496 | – | – | – | –
3 | O=C(O)c1cc(N2CCC(N3CCOCC3)CC2)c2c(C3CCC3)nn(-c3ccc(F)cc3)c2n1 [compound 679, 3-cyclobutyl-1-(4-fluorophenyl)-4-[4-(morpholin-4-yl)piperidin-1-yl]-1H-pyrazolo[3,4-b]pyridine-6-carboxylic acid] | 503.6 | 299 | 279.5 | 370 | – | – | – | – | – | –
4 | CC(C)Oc1nn(C2CCCCC2)c2nc(C(=O)O)cc(-c3ccc(CN4CC(N(C)C)C4)cc3)c12 [compound 927, 1-cyclohexyl-4-(4-{[3-(dimethylamino)azetidin-1-yl]methyl}phenyl)-3-[(propan-2-yl)oxy]-1H-pyrazolo[3,4-b]pyridine-6-carboxylic acid] | 362.92 | 1100 | – | – | – | – | 150.78 | 1250 | – | –
5 | CC(C)c1nn(-c2ccnc(N3CCOCC3)c2)c2nc(C(=O)O)cc(-c3ccc(N4CCOCC4)cc3)c12 [compound 201, 4-[4-(morpholin-4-yl)phenyl]-1-[2-(morpholin-4-yl)pyridin-4-yl]-3-(propan-2-yl)-1H-pyrazolo[3,4-b]pyridine-6-carboxylic acid] | 439.85 | 288 | – | – | – | – | – | – | 251.3 | 596
6 | O=C(O)c1cc(N2CCC(N3CCN(C4CC4)CC3)CC2)c2c(C3CCC3)nn(-c3ccc(F)cc3)c2n1 [compound 886, 3-cyclobutyl-4-[4-(4-cyclopropylpiperazin-1-yl)piperidin-1-yl]-1-(4-fluorophenyl)-1H-pyrazolo[3,4-b]pyridine-6-carboxylic acid] | 551.77 | 511 | 236.05 | 467 | – | – | – | – | – | –
7 | CC(C)Oc1cccc(-n2nc(C3CCC3)c3c(N4CCC(N5CCOCC5)CC4)cc(C(=O)O)nc32)n1 [compound 924, 3-cyclobutyl-4-[4-(morpholin-4-yl)piperidin-1-yl]-1-{6-[(propan-2-yl)oxy]pyridin-2-yl}-1H-pyrazolo[3,4-b]pyridine-6-carboxylic acid] | 609.82 | 136 | – | – | – | – | 374.45 | 420 | – | –
8 | CC(C1CCN(c2cc(C(=O)O)nc3c2c(C2CCC2)nn3-c2ccccc2)CC1)N1CCOCC1 (stereo not drawn) [compound 683, 3-cyclobutyl-4-{4-[1-(morpholin-4-yl)ethyl]piperidin-1-yl}-1-phenyl-1H-pyrazolo[3,4-b]pyridine-6-carboxylic acid] | 600.53 | 60.7 | 395.1 | 141 | – | – | – | – | – | –
9 | COCCC1CCN(c2cc(C(=O)O)nc3c2c(C(C)C)nn3-c2cccc(C)c2)CC1 [compound 228, 4-[4-(2-methoxyethyl)piperidin-1-yl]-1-(3-methylphenyl)-3-(propan-2-yl)-1H-pyrazolo[3,4-b]pyridine-6-carboxylic acid] | 475.1 | 397 | – | – | – | – | – | – | 297.15 | 680
10 | CC(C)c1nn(-c2cccc(N3CCCC3)c2)c2nc(C(=O)O)cc(-c3ccc(N4CCC(C#N)CC4)nc3)c12 [compound 222, 4-[6-(4-cyanopiperidin-1-yl)pyridin-3-yl]-3-(propan-2-yl)-1-[3-(pyrrolidin-1-yl)phenyl]-1H-pyrazolo[3,4-b]pyridine-6-carboxylic acid] | 612.47 | 268 | – | – | – | – | – | – | 429.93 | 433
11 | CO[C@H]1CCC[C@@H](n2nc(C(C)C)c3c(-c4ccc(N5CCOCC5)cc4)cc(C(=O)O)nc32)C1 [compound 205, 1-[(1R,3S)-3-methoxycyclohexyl]-4-[4-(morpholin-4-yl)phenyl]-3-(propan-2-yl)-1H-pyrazolo[3,4-b]pyridine-6-carboxylic acid] | 261.5 | 819 | – | – | – | – | – | – | 109 | 1110
12 | CC(C)c1nn(C2CCCCC2)c2nc(C(=O)O)cc(-c3ccc(N(C)C4CCOCC4)nc3)c12 [compound 169, 1-cyclohexyl-4-{6-[methyl(oxan-4-yl)amino]pyridin-3-yl}-3-(propan-2-yl)-1H-pyrazolo[3,4-b]pyridine-6-carboxylic acid] | 436.5 | 302 | – | – | – | – | – | – | 217.88 | 448
13 | CC(C)c1nn(-c2ccc(F)cc2)c2nc(C(=O)O)cc(N3CCC(C(C)N4CCCC4)CC3)c12 (stereo not drawn) [compound 789, 1-(4-fluorophenyl)-3-(propan-2-yl)-4-{4-[1-(pyrrolidin-1-yl)ethyl]piperidin-1-yl}-1H-pyrazolo[3,4-b]pyridine-6-carboxylic acid] | 460.95 | 918 | 257.05 | 477 | – | – | – | – | – | –
14 | CC(C)OC(=O)N1CC[C@@H]2CN(c3cc(C(=O)O)nc4c3c(C3CCC3)nn4-c3ccccc3)CC[C@@H]21 (racemic) [compound 610, rac-3-cyclobutyl-1-phenyl-4-[(3aR,7aS)-1-{[(propan-2-yl)oxy]carbonyl}octahydro-5H-pyrrolo[3,2-c]pyridin-5-yl]-1H-pyrazolo[3,4-b]pyridine-6-carboxylic acid] | 539.05 | 44.8 | 262.4 | 123 | – | – | – | – | – | –
15 | CC(F)(F)c1cccc(-n2nc(C3CCC3)c3c(N4CCC(N5CCOCC5)CC4)cc(C(=O)O)nc32)c1 [compound 915] | 587.95 | 50.2 | – | – | – | – | 386.2 | 394 | – | –
16 | CC(C)c1nn(-c2cccc(N3CCC3)c2)c2nc(C(=O)O)cc(-c3ccc(N4CCOCC4)cc3)c12 [compound 151, 1-[3-(azetidin-1-yl)phenyl]-4-[4-(morpholin-4-yl)phenyl]-3-(propan-2-yl)-1H-pyrazolo[3,4-b]pyridine-6-carboxylic acid] | 562.6 | 644 | – | – | – | – | – | – | 322.03 | 354
17 | CC(C)c1nn(-c2cccc(N3CCOCC3)c2)c2nc(C(=O)O)cc(-c3cnc(N4CCC(C#N)CC4)nc3)c12 [compound 204, 4-[2-(4-cyanopiperidin-1-yl)pyrimidin-5-yl]-1-[3-(morpholin-4-yl)phenyl]-3-(propan-2-yl)-1H-pyrazolo[3,4-b]pyridine-6-carboxylic acid] | 589.7 | 844 | – | – | – | – | – | – | 402.1 | 1110
18 | CC1CCN(CCC2CCN(c3cc(C(=O)O)nc4c3c(C3CCC3)nn4-c3ccccc3)CC2)CC1 [compound 687, 3-cyclobutyl-4-{4-[2-(4-methylpiperidin-1-yl)ethyl]piperidin-1-yl}-1-phenyl-1H-pyrazolo[3,4-b]pyridine-6-carboxylic acid] | 454 | 89.7 | 264.95 | 171 | – | – | – | – | – | –
19 | Cc1nn(-c2ccccc2)c2nc(C(=O)O)cc(N3CCCCC3)c12 [compound 123, 3-methyl-1-phenyl-4-(piperidin-1-yl)-1H-pyrazolo[3,4-b]pyridine-6-carboxylic acid] | 267.95 | 2690 | – | – | – | – | – | – | 107.95 | 3280
20 | O=C(O)c1cc(N2CCC(N3CCN(C4CC4)CC3)CC2)c2c(C3CCC3)nn(-c3ccccc3)c2n1 [compound 738, 3-cyclobutyl-4-[4-(4-cyclopropylpiperazin-1-yl)piperidin-1-yl]-1-phenyl-1H-pyrazolo[3,4-b]pyridine-6-carboxylic acid] | 472.1 | 110 | 267.6 | 245 | – | – | – | – | – | –
21 | CC(C)N1CCC2(CCN(c3cc(C(=O)O)nc4c3c(C3CCC3)nn4-c3ccc(F)cc3)CC2)CC1 [compound 890, 3-cyclobutyl-1-(4-fluorophenyl)-4-[9-(propan-2-yl)-3,9-diazaspiro[5.5]undecan-3-yl]-1H-pyrazolo[3,4-b]pyridine-6-carboxylic acid] | 406.67 | 225 | 179 | 742 | – | – | – | – | – | –

From patent publication US9796711B2, “Substituted pyrazolo[3,4-b]pyridin-6-carboxylic acids and method of use” (AbbVie S.àr.l., priority 2015, dated 2017)
